Data as given in patent US20190367448A1, “TREATMENT OF SLEEP-WAKE DISORDERS” (SK Biopharmaceuticals Co., Ltd., priority 2005, published 2019).

Test system: male adult Sprague Dawley rats
Test: Sleep-wake organization in rats, polysomnographic recording (EEG, EOG, EMG, body movement) for 16 hours after acute i.p. administration
Format: in vivo, rat
Conditions: for Duration (min) Active wake / Duration (min) Deep sleep / Duration (min) Light sleep / Duration (min) Passive wake / Duration (min) REM sleep / Duration (min) intermediate stage / ISWS/TST (%) / Latency (min) ISWS / Latency (min) REM sleep / Latency (min) dSWS / REMS/TST (%) / Shifts (number) Shift from ISWS to AW / Shifts (number) Shift from ISWS to PW / Shifts (number) Shift from REMS to AW / Shifts (number) Shift from REMS to PW / Shifts (number) Shift from dSWS to AW / Shifts (number) Shift from dSWS to PW / Total sleep time TST / dSWS/TST (%): 16 hours recording period; for change in mean duration of REM sleep stage / change in number of REM sleep epochs / change in number of active wake epochs / change in number of deep sleep epochs / change in number of light sleep epochs / change in total time spent in REM sleep / change in total time spent in active wakefulness / change in total time spent in deep (rebound) sleep / change in total time spent in light sleep / change in mean duration of deep sleep stage: 16 hours recording; for change in total time spent in REM sleep / change in total time spent in active wakefulness / change in total time spent in deep (rebound) sleep / change in total time spent in light sleep: vs vehicle

`CC(N)Cc1ccccc1` (stereo not shown) [Amphetamine, amphetamine] was tested, and the “period of enhanced active wakefulness” value (rats, 1 mg/kg) was 3 h, the “period of reduction in light, deep and REM sleep durations” value (“period of reduction in light” below) (rats, 1 mg/kg) was 3 h and the “Duration (min) Active wake” value (rats, 1 mg/kg i.p.) was 382.4 min. For the same compound, the “Duration (min) Deep sleep” value (rats, 1 mg/kg i.p.) was 188.0 min, the “Duration (min) Light sleep” value (rats, 1 mg/kg i.p.) was 242.7 min and the “Duration (min) Passive wake” value (rats, 1 mg/kg i.p.) was 50.0 min. The “Duration (min) REM sleep” value (rats, 1 mg/kg i.p.) was 88.6 min, the “Duration (min) intermediate stage” value (rats, 1 mg/kg i.p.) was 4.0 min and the “ISWS/TST (%)” value (rats, 1 mg/kg i.p.) was 45.1 ± 5.3 %. The “Latency (min) ISWS” value (rats, 1 mg/kg i.p.) was 140.6 ± 13.4 min, the “Latency (min) REM sleep” value (rats, 1 mg/kg i.p.) was 208.6 ± 14.4 min and the “Latency (min) dSWS” value (rats, 1 mg/kg i.p.) was 161.7 ± 5.3 min. The “REMS/TST (%)” value (rats, 1 mg/kg i.p.) was 16.9 ± 0.9%, the “Shifts (number) Shift from ISWS to AW” value (rats, 1 mg/kg i.p.) was 198.8 number and the “Shifts (number) Shift from ISWS to PW” value (rats, 1 mg/kg i.p.) was 64.4 number. For the same compound, the “Shifts (number) Shift from REMS to AW” value (rats, 1 mg/kg i.p.) was 66.5 number, the “Shifts (number) Shift from REMS to PW” value (rats, 1 mg/kg i.p.) was 5.8 number and the “Shifts (number) Shift from dSWS to AW” value (rats, 1 mg/kg i.p.) was 11.7 number. For the same compound, the “Shifts (number) Shift from dSWS to PW” value (rats, 1 mg/kg i.p.) was 37.7 number, the “Total sleep time TST” value (rats, 1 mg/kg i.p.) was 523.3 ± 25.3 min and the “dSWS/TST (%)” value (rats, 1 mg/kg i.p.) was 36.6 ± 5.7 %. For the same compound, the “change in mean duration of REM sleep stage” value (“change … of REM sleep stage” below) (rats, 1 mg/kg) was −16%, the “change in number of REM sleep epochs” value (rats, 1 mg/kg) was −4% and the “change in number of active wake epochs” value (rats, 1 mg/kg) was “+27%”. The “change in number of deep sleep epochs” value (rats, 1 mg/kg) was “+73%”, the “change in number of light sleep epochs” value (rats, 1 mg/kg) was −35% and the “change in total time spent in REM sleep” value (rats, 1 mg/kg) was −4%. The “change in total time spent in active wakefulness” value (“change … in active wakefulness” for short) (rats, 1 mg/kg) was “+27%”, the “change in total time spent in deep (rebound) sleep” value (shortened to “change … (rebound) sleep”) (rats, 1 mg/kg) was “+73%” and the “change in total time spent in light sleep” value (from here on “change … in light sleep”) (rats, 1 mg/kg) was −35%. For the same compound, the “period of enhanced active wakefulness” value (rats, 3 mg/kg) was 4 h, the “period of reduction in light” value (rats, 3 mg/kg) was 4 h and the “Duration (min) Active wake” value (rats, 3 mg/kg i.p.) was 441.8 min. The “Duration (min) Deep sleep” value (rats, 3 mg/kg i.p.) was 207.6 min, the “Duration (min) Light sleep” value (rats, 3 mg/kg i.p.) was 187.9 min and the “Duration (min) Passive wake” value (rats, 3 mg/kg i.p.) was 43.5 min. For the same compound, the “Duration (min) REM sleep” value (rats, 3 mg/kg i.p.) was 71.4 min, the “Duration (min) intermediate stage” value (rats, 3 mg/kg i.p.) was 4.0 min and the “ISWS/TST (%)” value (rats, 3 mg/kg i.p.) was 38.3 ± 3.4 %. For the same compound, the “Latency (min) ISWS” value (rats, 3 mg/kg i.p.) was 228.2 ± 25.0 min, the “Latency (min) REM sleep” value (rats, 3 mg/kg i.p.) was 338.6 ± 24.3 min and the “Latency (min) dSWS” value (rats, 3 mg/kg i.p.) was 242.0 ± 19.4 min. For the same compound, the “REMS/TST (%)” value (rats, 3 mg/kg i.p.) was 14.7 ± 0.7%, the “Shifts (number) Shift from ISWS to AW” value (rats, 3 mg/kg i.p.) was 178.7 number and the “Shifts (number) Shift from ISWS to PW” value (rats, 3 mg/kg i.p.) was 62.4 number. The “Shifts (number) Shift from REMS to AW” value (rats, 3 mg/kg i.p.) was 59.3 number, the “Shifts (number) Shift from REMS to PW” value (rats, 3 mg/kg i.p.) was 3.3 number and the “Shifts (number) Shift from dSWS to AW” value (rats, 3 mg/kg i.p.) was 14.8 number. The “Shifts (number) Shift from dSWS to PW” value (rats, 3 mg/kg i.p.) was 26.6 number, the “Total sleep time TST” value (rats, 3 mg/kg i.p.) was 460.9 ± 12.0 min and the “dSWS/TST (%)” value (rats, 3 mg/kg i.p.) was 46.0 ± 3.0 %. The “change … of REM sleep stage” value (rats, 3 mg/kg) was −23%, the “change in mean duration of deep sleep stage” value (rats, 3 mg/kg) was −19% and the “change in number of REM sleep epochs” value (rats, 3 mg/kg) was −22%. The “change in number of active wake epochs” value (rats, 3 mg/kg) was “+47%”, the “change in number of deep sleep epochs” value (rats, 3 mg/kg) was “+91%” and the “change in number of light sleep epochs” value (rats, 3 mg/kg) was −49%. The “change in total time spent in REM sleep” value (rats, 3 mg/kg) was −22%, the “change … in active wakefulness” value (rats, 3 mg/kg) was “+47%” and the “change … (rebound) sleep” value (rats, 3 mg/kg) was “+91%”. For the same compound, the “change … in light sleep” value (rats, 3 mg/kg) was −49%, the “period of enhanced active wakefulness” value (rats, 10 mg/kg) was 6 h and the “period of reduction in light” value (rats, 10 mg/kg) was 6 h. For the same compound, the “Duration (min) Active wake” value (rats, 10 mg/kg i.p.) was 498.7 min, the “Duration (min) Deep sleep” value (rats, 10 mg/kg i.p.) was 181.2 min and the “Duration (min) Light sleep” value (rats, 10 mg/kg i.p.) was 182.0 min. The “Duration (min) Passive wake” value (rats, 10 mg/kg i.p.) was 35.6 min, the “Duration (min) REM sleep” value (rats, 10 mg/kg i.p.) was 53.6 min and the “Duration (min) intermediate stage” value (rats, 10 mg/kg i.p.) was 4.0 min. For the same compound, the “ISWS/TST (%)” value (rats, 10 mg/kg i.p.) was 43.2 ± 5.7 %, the “Latency (min) ISWS” value (rats, 10 mg/kg i.p.) was 284.7 ± 56.1 min and the “Latency (min) REM sleep” value (rats, 10 mg/kg i.p.) was 440.8 ± 57.8 min. The “Latency (min) dSWS” value (rats, 10 mg/kg i.p.) was 367.3 ± 5.5 min, the “REMS/TST (%)” value (rats, 10 mg/kg i.p.) was 13.0 ± 0.9% and the “Shifts (number) Shift from ISWS to AW” value (rats, 10 mg/kg i.p.) was 201.7 number. The “Shifts (number) Shift from ISWS to PW” value (rats, 10 mg/kg i.p.) was 49.0 number, the “Shifts (number) Shift from REMS to AW” value (rats, 10 mg/kg i.p.) was 50.0 number and the “Shifts (number) Shift from REMS to PW” value (rats, 10 mg/kg i.p.) was 2.2 number. For the same compound, the “Shifts (number) Shift from dSWS to AW” value (rats, 10 mg/kg i.p.) was 9.7 number, the “Shifts (number) Shift from dSWS to PW” value (rats, 10 mg/kg i.p.) was 11.6 number and the “Total sleep time TST” value (rats, 10 mg/kg i.p.) was 422.9 ± 19.5 min. For the same compound, the “dSWS/TST (%)” value (rats, 10 mg/kg i.p.) was 42.9 ± 5.3 %, the “change … of REM sleep stage” value (rats, 10 mg/kg) was −36% and the “change in mean duration of deep sleep stage” value (rats, 10 mg/kg) was −30%. The “change in number of REM sleep epochs” value (rats, 10 mg/kg) was −41%, the “change in number of active wake epochs” value (rats, 10 mg/kg) was “+66%” and the “change in number of deep sleep epochs” value (rats, 10 mg/kg) was “+66%”. For the same compound, the “change in number of light sleep epochs” value (rats, 10 mg/kg) was −51%, the “change in total time spent in REM sleep” value (rats, 10 mg/kg) was −41% and the “change … in active wakefulness” value (rats, 10 mg/kg) was “+66%”. The “change … (rebound) sleep” value (rats, 10 mg/kg) was “+66%”, the “change … in light sleep” value (rats, 10 mg/kg) was −51% and the “latencies of all sleep states” value (rats, 1, 3, 10 mg/kg) was “significantly increased”. The “mean duration of light sleep” value (rats, 1, 3, and 10 mg/kg) was “not significantly modified”, the “mean duration of active wake” value (rats, different doses (1, 3, 10 mg/kg)) was “not modified” and the “period of increased wakefulness and reduced sleep states following administration” value (rats, dose-dependent, 1, 3, 10 mg/kg) was 3 to 8 h. The “effect on the time spent in deep sleep stage” value (rats, reduced during 3-6 hours following the injection, then increased (rebound)) was “biphasic effect”.
